Source: US12303517B1, “Oral testosterone therapy” (Lipocine, Inc., priority 2016, dated 2025)

Test: Randomized double-blind placebo-controlled dose escalating clinical study of oral T13 in hypogonadal males (serum testosterone pharmacokinetics)
Type: in vivo, human
Settings: for T Cavg (±SD) / T Cmax (±SD) / % with Cavg/day > 300 ng/dL / % with Cmax/dose < 1,500 ng/dL: hypogonadal males; for % with Cavg/day > 300 ng/dL / % with Cmax/dose < 1,500 ng/dL: serum T
Protocol: Dosage Form Example B of Composition 4 with dosing regimen (Regimen #. 1-9) of dosing category BID-equal dose with daily dose range 500-1250 mg of T13 in this invention were used for a clinic study of Testosterone Therapy for hypogonadal males.
This Clinical Study is a Randomized Double-Blind, Placebo-Controlled Dose Escalating Study of the Safety, Efficacy, Tolerability, and Pharmacokinetics of Testosterone Therapy in Hypogonadal Males. This clinic study was a single and multiple, ascending-dose study that was designed to determine the optimal starting, titration (if appropriate), or single fixed dose for safety and efficacy targeted by US FDA. The study also verified the time for testosterone levels to reach steady state and identified a suitable single fixed dose dosing regimen that satisfies unmet need for safety and efficacy for oral TRT.
This study was carried out with conditions of a single-center, randomized, double-blind, placebo-controlled, ascending multiple-dose, and serial-group in adult hypogonadal male subjects. The objectives of this study were: • a) To assess the safety, efficacy, and tolerability of escalating single and multiple oral doses of T13 dosage forms in hypogonadal males • b) To determine the pharmacokinetics (PK) of testosterone (T), DHT, TT, DHTT, and estradiol (E2) after single and multiple oral doses of TT dosage forms in hypogonadal males • c) To identify single fixed dose dosing regimen satisfying USFDA target, not needing to titrate for restoring average serum T levels in hypogonadal males to the normal T range.
The dosing regimen for this clinic study ranged from 500 mg daily dose to 1250 mg daily dose with […]. Observed pharmacokinetic parameters (T, DHT, T13, DHTT, and E2) after single and multiple oral doses of T13 dosage forms in the patients were recorded by each daily dose in the report. […] The overall analyzed results of this clinic study were plotted according to % of patients for safety (Cmax <1,500 ng/dL) and efficacy (Cavg >300 ng/dL) with a variety of dosing regimen. Its results are shown in the below table.

[1] = 750 mg T13 QD dose at steady state (14 days)
[2] = daily dose 500 mg T13 (equivalent T dose 298 mg)
[3] = daily dose 700 mg T13 (equivalent T dose 417 mg)
[4] = daily dose 750 mg T13 QD (equivalent T dose 446 mg)
[5] = daily dose 800 mg T13 (equivalent T dose 476 mg)
[6] = daily dose 900 mg T13 (equivalent T dose 536 mg)
[7] = daily dose 1000 mg T13 QD (equivalent T dose 595 mg)
[8] = daily dose 1100 mg T13 (equivalent T dose 655 mg)
[9] = daily dose 1150 mg T13 (equivalent T dose 685 mg)
[10] = daily dose 1250 mg T13 (equivalent T dose 744 mg)

## CCCCCCCCCCCCC(=O)O[C@H]1CC[C@H]2[C@@H]3CCC4=CC(=O)CC[C@]4(C)[C@H]3CC[C@]12C [T13, testosterone tridecanoate]
[1]
  T Cavg (±SD): 352 (±41) ng/dL
  T Cmax (±SD): 822 (±254) ng/dL
1000 mg QD dose at steady state (14 days)
  T Cavg (±SD): 405 (±148) ng/dL
1000 mg T13 QD dose at steady state (14 days)
  T Cmax (±SD): 930 (±326) ng/dL
[2]
  % with Cavg/day > 300 ng/dL: 36.3%
  % with Cmax/dose < 1,500 ng/dL: 100.0%
[3]
  % with Cavg/day > 300 ng/dL: 71.5%
  % with Cmax/dose < 1,500 ng/dL: 100.0%
[4]
  % with Cavg/day > 300 ng/dL: 76.2%
  % with Cmax/dose < 1,500 ng/dL: 99.5%
[5]
  % with Cavg/day > 300 ng/dL: 80.0%
  % with Cmax/dose < 1,500 ng/dL: 98.8%
[6]
  % with Cavg/day > 300 ng/dL: 85.0%
  % with Cmax/dose < 1,500 ng/dL: 96.7%
[7]
  % with Cavg/day > 300 ng/dL: 88.1%
  % with Cmax/dose < 1,500 ng/dL: 92.8%
[8]
  % with Cavg/day > 300 ng/dL: 90.0%
  % with Cmax/dose < 1,500 ng/dL: 85.6%
[9]
  % with Cavg/day > 300 ng/dL: 90.7%
  % with Cmax/dose < 1,500 ng/dL: 80.0%
[10]
  % with Cavg/day > 300 ng/dL: 91.6%
  % with Cmax/dose < 1,500 ng/dL: 66.8%
Single fixed dose, no titration, 750 mg to 1100 mg daily dose of T13
  US FDA T level target for safety and efficacy for testosterone replacement therapy: satisfies US FDA T level target for safety and efficacy
